Experimental findings from ChEMBL document CHEMBL5550114, “Disclosure of cinnamic acid/4,9-diaminoacridine conjugates as multi-stage antiplasmodial hits” (Bioorg Med Chem, 2024) are described below.

Active and inactive are the calls of the source. No cut-off for these calls is given here.

Series [1] concerns Plasmodium berghei. As to the kind of experiment: Antiplasmodial activity against GFP-Luccon-fused liver stage Plasmodium berghei infected in human Huh-7 cells assessed as parasitic growth inhibition at 10 uM measured after 48 hrs by bioluminescence assay. Type of series: functional, organism-based.
The subject of series [2] is Plasmodium berghei. As to the kind of experiment: Antiplasmodial activity against GFP-Luccon-fused liver stage Plasmodium berghei infected in human Huh-7 cells assessed as parasitic growth inhibition at 1 uM measured after 48 hrs by bioluminescence assay. Type of series: functional, organism-based.
For series [3], the system named is Plasmodium falciparum. As to the kind of experiment: Antiplasmodial activity against CQ-sensitive blood stage Plasmodium falciparum 3D7 infected in group B human erythrocytes assessed as parasitic growth inhibition measured after 48 hrs by flow cytometry. The series is classed as functional, organism-based. The conditions noted are these: 3D7, Erythrocyte. (A flow cytometer gives signals particle by particle.)

Series [4] concerns Plasmodium falciparum. As to the kind of experiment: Antiplasmodial activity against gametocyte stage Plasmodium falciparum NF54-gexp02-Tom infected in group B human erythrocytes assessed as parasitic growth inhibition measured after 15 days by Geimsa staining based analysis. The series is classed as functional, organism-based. The conditions noted are these: Erythrocyte, 360 h.

The next series deals with Huh-7. The series is described as follows: Cytotoxicity against human Huh-7 cells assessed as cell viability at 10 uM measured after 48 hrs by Alamar blue staining based analysis. The series is classed as toxicity. The conditions noted are these: huh-7, 48 h.
Series [5] relates to Plasmodium falciparum. As to the kind of experiment: Antiplasmodial activity against CQ-sensitive blood stage Plasmodium falciparum 3D7 assessed as parasitic growth inhibition. The series is classed as functional, organism-based.
Series [6] deals with Plasmodium berghei. As to the kind of experiment: Antiplasmodial activity against GFP-Luccon-fused liver stage Plasmodium berghei infected in human Huh-7 cells assessed as parasitic growth inhibition measured after 48 hrs by Alamar blue staining based analysis. To be noted: Huh-7, 48 h. Type of series: functional, organism-based. On the technique in general: Resazurin is reduced to fluorescent resorufin, in cell work by metabolically active cells.

As a reminder, the IC50 is the point on the concentration scale where inhibition reaches its midpoint.

Consider `CCN(CC)CCCNc1c2ccc(Cl)cc2nc2c(NCCCCNC(=O)/C=C/c3ccc(OC)cc3)cc(OC)cc12`, for which the inhibition result with Plasmodium berghei [1] was “Active”. Further, the inhibition result with Plasmodium berghei [2] is “inactive”. Also, the IC50 in the series with Plasmodium falciparum [3] came out at 164 nM; with Plasmodium falciparum [4], 474 nM. In the series with Huh-7, the Activity entry is “Toxic”.
For the compound `COc1cc(NC(C)CCCN)c2ncccc2c1` (stereo not drawn) [PRIMAQUINE], the inhibition result with Plasmodium berghei [1] is “Active”. The inhibition result in the series with Plasmodium berghei [2] is “inactive”. Moreover, in the series with Plasmodium falciparum [4], the IC50 amounted to 17700 nM.
Turning to `CCN(CC)CCCC(C)Nc1c2ccc(Cl)cc2nc2c(NCCCCN)cc(OC)cc12` (stereo not drawn), in the series with Plasmodium berghei [1], the inhibition entry was “Active”. For the same compound, the inhibition entry with Plasmodium berghei [2] was “inactive”. Besides, the IC50 with Plasmodium falciparum [5] came out at 680 nM; with Plasmodium berghei [6] it was 11000 nM. Also, in the series with Huh-7, the Activity result is “Non-Toxic”.
For the compound `CCN(CC)CCCC(C)Nc1c2ccc(Cl)cc2nc2c(NCCCCNC(=O)/C=C/c3ccccc3)cc(OC)cc12` (stereo not drawn), the inhibition entry with Plasmodium berghei [1] is “Active”. For the same compound, in the series on Plasmodium berghei [2], the inhibition result is “inactive”. In addition, the figures for the IC50 in the series on Plasmodium falciparum [3] and in the series on Plasmodium falciparum [4] were 143 nM and 461 nM, respectively. Moreover, the Activity result in the series with Huh-7 is given as “Toxic”.
Regarding `CCN(CC)CCCNc1c2ccc(Cl)cc2nc2c(NCCCCNC(=O)/C=C/c3cccc(F)c3)cc(OC)cc12`, the inhibition result with Plasmodium berghei [1] is “Active”. Further, the inhibition entry with Plasmodium berghei [2] was “inactive”. The IC50 is 161 nM in the series on Plasmodium falciparum [3] and about 430 nM with Plasmodium falciparum [4]. Also, in the series on Huh-7, the Activity result is reported as “Toxic”.
As for `CCN(CC)CCCC(C)Nc1c2ccc(Cl)cc2nc2c(NCCCCNC(=O)/C=C/c3ccc(F)cc3)cc(OC)cc12` (stereo not drawn), the inhibition entry in the series with Plasmodium berghei [1] is “Active”. The inhibition entry in the series with Plasmodium berghei [2] is “inactive”. Besides, the results for the IC50 with Plasmodium falciparum [3] and in the series with Plasmodium falciparum [4] were 178 nM and 645 nM, respectively. For the same compound, the Activity result in the series on Huh-7 is “Toxic”.
Turning to `COc1cc(NCCCCNC(=O)/C=C/c2cccc(F)c2)c2nc3cc(Cl)ccc3cc2c1`, the inhibition result in the series on Plasmodium berghei [1] was “Active”. Moreover, the inhibition entry in the series with Plasmodium berghei [2] is “inactive”.
The like results for `COc1cc(NCCCCNC(=O)/C=C/c2ccc(F)cc2)c2nc3cc(Cl)ccc3cc2c1` were, in that order, “Active” and “inactive”.
Take `CCN(CC)CCCNc1c2ccc(Cl)cc2nc2c(NCCCCN)cc(OC)cc12`: in the series on Plasmodium berghei [1], the inhibition entry is “Active”. Also, in the series with Plasmodium berghei [2], the inhibition entry is “inactive”. In addition, the IC50 in the series with Plasmodium falciparum [5] came out at 440 nM. In the series on Huh-7, the Activity entry is “Non-Toxic”.
As to `CCN(CC)CCCNc1c2ccc(Cl)cc2nc2c(NCCCCNC(=O)/C=C/c3ccc(F)cc3)cc(OC)cc12`, the inhibition result with Plasmodium berghei [1] was “Active”. In the series on Plasmodium berghei [2], the inhibition entry is “inactive”. In the series on Plasmodium falciparum [3], the IC50 stood at 348 nM. Besides, the Activity entry in the series with Huh-7 is listed as “Toxic”.
Take `COc1cc(NCCCCNC(=O)/C=C/c2ccccc2)c2nc3cc(Cl)ccc3cc2c1`: the inhibition result in the series with Plasmodium berghei [1] was “Active”. For the same compound, in the series with Plasmodium berghei [2], the inhibition entry is “inactive”.
As for `CCN(CC)CCCC(C)Nc1c2ccc(Cl)cc2nc2c(NCCCCNC(=O)/C=C/c3ccc(OC)cc3)cc(OC)cc12` (stereo not drawn), the inhibition entry in the series on Plasmodium berghei [1] was “Active”. Further, the inhibition result in the series with Plasmodium berghei [2] was “inactive”. Besides, the IC50 with Plasmodium falciparum [3] came out at 153 nM. Further, in the series on Huh-7, the Activity result is recorded as “Toxic”.
Turning to `CCN(CC)CCCNc1c2ccc(Cl)cc2nc2c(NCCCCNC(=O)/C=C/c3ccccc3)cc(OC)cc12`, the inhibition entry with Plasmodium berghei [1] is “Active”. In the series on Plasmodium berghei [2], the inhibition entry was “inactive”. In the series with Plasmodium falciparum [3], the IC50 was 80 nM. The Activity result in the series on Huh-7 is given as “Toxic”.
Consider `COc1ccc(/C=C/C(=O)NCCCCNc2cc(OC)cc3cc4ccc(Cl)cc4nc23)cc1`, for which the inhibition entry in the series with Plasmodium berghei [1] is “Active”. In the series with Plasmodium berghei [2], the inhibition result was “inactive”.
Turning to `CCN(CC)CCCC(C)Nc1c2ccc(Cl)cc2nc2c(NCCCCNC(=O)/C=C/c3cccc(F)c3)cc(OC)cc12` (stereo not drawn), the inhibition entry in the series with Plasmodium berghei [1] was “Active”. For the same compound, in the series with Plasmodium berghei [2], the inhibition entry is “inactive”. For the same compound, the IC50 with Plasmodium falciparum [3] was 164 nM. Also, the Activity result with Huh-7 is reported as “Toxic”.
For `CCN(CC)CCCC(C)Nc1ccnc2cc(Cl)ccc12` (stereo not drawn), the inhibition result with Plasmodium berghei [1] is “Active”. Moreover, in the series with Plasmodium berghei [2], the inhibition entry is “inactive”.
